{"source": "patent US20110021429A1", "about": "“Renoprotection by growth hormone-releasing hormone and agonists” (priority 2007, published 2011)", "key": {"GHRH-R": {"molecular_target": "T1, GHRH-R (Rattus norvegicus, UniProt Q02644)", "T1 construct": "endogenous in cells; host or cells: freshly dispersed semi-purified thin limb cells of Henle's loop from the renal medulla of 2-month-old male Sprague Dawley rats", "T1 sequence (Q02644 53-423 isoform Q02644-2)": "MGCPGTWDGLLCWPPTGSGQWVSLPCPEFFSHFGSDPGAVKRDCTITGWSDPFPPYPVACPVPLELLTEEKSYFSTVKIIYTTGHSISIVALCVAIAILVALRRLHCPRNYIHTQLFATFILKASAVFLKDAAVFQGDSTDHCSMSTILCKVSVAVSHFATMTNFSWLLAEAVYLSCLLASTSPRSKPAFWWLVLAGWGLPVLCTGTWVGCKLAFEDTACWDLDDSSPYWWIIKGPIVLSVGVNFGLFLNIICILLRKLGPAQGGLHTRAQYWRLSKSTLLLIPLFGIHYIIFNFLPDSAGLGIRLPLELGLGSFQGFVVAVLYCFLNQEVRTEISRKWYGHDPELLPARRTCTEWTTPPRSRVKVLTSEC", "experiment": "GHRH-induced intracellular cAMP production in freshly dispersed semi-purified thin limb cells (EIA)", "format": "cell-based", "protocol": "Cell dispersion of minced medullas to obtain semi-purified thin limb cells was performed as previously described.^33 These cells were used immediately for in vitro determination of basal and rGHRH(1-29)NH2-induced cAMP levels or purified by differential centrifugation for immunocytochemistry, using a continuous gradient of Nycodenz. The gradient was prepared as described by Grupp et al.^55 and thin limb cells were recovered in fraction I of the gradient after centrifugation at 1500 g (16° C., 45 min) and washed twice in HEPES-Ringer buffer (430 g, 16° C., 10 min). Cell viability, assessed by the Trypan Blue exclusion method, was around 95%. When purified thin limb cells were cultured, isolation and purification steps were performed under sterile conditions and media containing antibiotics.\nSensitivity to GHRH was assessed in freshly semi-purified thin limb cells^33 from rats fed a 8%-NaCl diet for 2, 7 or 14 days or the control diet. […] Supernatants were used to quantify immunoreactive cAMP levels (non-acetylated method). Pellets were kept frozen for determination of protein content.^59 Optical densities were measured at 450 nm, using a microplate reader (Bio-Rad, model 3550). […]"}, "[1]": {"system": "thin limbs of Henle's loop cells", "experiment": "In vivo BrdU immunolabeling (DNA repair/synthesis) in purified thin limb cells", "parameters": "species or system rat", "conditions": "1 mg/kg BW sc/day, 2 days, 8%-NaCl chow", "protocol": "(§1) Two-month-old male Sprague Dawley rats (Charles River Canada, St-Constant, QC) were kept in temperature- (22° C.), humidity- (65%) and lighting- (12h cycles; lights on at 0700 h) controlled rooms and had free access to standard rat chow (2018 Tecklad global 18% protein rodent diet, containing 0.23% Na^+ and 0.4% Cl^−; Harlan Tecklad, Madison, Wis.) and tap water. Rats were acclimatized ≈3 days before going on a high-NaCl diet or water deprivation. Rats fed the custom-made high-NaCl diet for 2, 7 or 14 (8% NaCl; Harlan Tecklad) were compared to rats fed the custom-made control diet (0.3% NaCl; Harlan Tecklad). They had free access to water. […] Rats used in the first series of experiments, to quantify GHRH-R mRNA levels following a 8%-NaCl diet or a water deprivation, were housed individually in metabolic cages for the entire duration of intervention. Body weight (BW), food and water intakes, and urine volume were recorded daily, and Na^+ levels were analyzed on the last 24h urine sample before sacrifice. Rats used in the 8%-NaCl diet/GHRH study were housed individually in plastic cages and BW and food intake were recorded daily. […]\nBrdU immunolabeling (Roche Diagnostics, Laval, QC, CA) was used to quantify DNA repair/synthesis in purified thin limb cells from rat submitted 2 days to a 8%- or 0.3%-NaCl diet and injected with GHRH or saline. […]"}, "GHRH-R mRNA [2]": {"system": "GHRH-R mRNA", "experiment": "Renal medulla GHRH-R mRNA levels after in vivo GHRH in high-NaCl fed rats", "parameters": "species or system rat", "conditions": "high-NaCl fed rats injected with GHRH, 1 mg/kg BW sc/day, 2 days", "protocol": "as §1\nTotal RNA from medullas and purified descending and ascending thin limb cells was extracted with TRIzol (Invitrogen Canada, Burlington, ON). […] Tissue GHRH-R and GAPDH mRNA and cRNA external standard levels were quantified by densitometry. […]"}, "[3]": {"experiment": "Serum total IGF-1 levels after in vivo GHRH", "parameters": "species or system rat", "conditions": "high-NaCl fed rats injected with GHRH, 1 mg/kg BW sc/day, 2 days", "protocol": "(§2) Two-month-old male Sprague Dawley rats (Charles River Canada, St-Constant, QC) were kept in temperature- (22° C.), humidity- (65%) and lighting- (12h cycles; lights on at 0700 h) controlled rooms and had free access to standard rat chow (2018 Tecklad global 18% protein rodent diet, containing 0.23% Na^+ and 0.4% Cl^−; Harlan Tecklad, Madison, Wis.) and tap water. Rats were acclimatized ≈3 days before going on a high-NaCl diet or water deprivation. Rats fed the custom-made high-NaCl diet for 2, 7 or 14 (8% NaCl; Harlan Tecklad) were compared to rats fed the custom-made control diet (0.3% NaCl; Harlan Tecklad). They had free access to water. Rats deprived of water for 3 or 5 days had free access to 2018 Tecklad rat chow. Rats used in the first series of experiments, to quantify GHRH-R mRNA levels following a 8%-NaCl diet or a water deprivation, were housed individually in metabolic cages for the entire duration of intervention. Body weight (BW), food and water intakes, and urine volume were recorded daily, and Na^+ levels were analyzed on the last 24h urine sample before sacrifice. Rats used in the 8%-NaCl diet/GHRH study were housed individually in plastic cages and BW and food intake were recorded daily. Rats were sacrificed in a block-design fashion between 0900-1130 h, by rapid decapitation. […]"}, "GHRH-R mRNA [4]": {"system": "GHRH-R mRNA", "experiment": "GHRH-R mRNA levels by real-time RT-PCR in purified thin limb cells after in vivo sc GHRH", "parameters": "species or system rat", "conditions": "2 days; for GHRH-R mRNA levels: 1 mg/kg BW/day sc", "protocol": "as §2, with “decapitation. Pituitaries, kidneys and livers were excised immediately and anterior pituitaries and renal medullas dissected out. Tissues were snap-frozen in liquid nitrogen and stored at −80° C. until RNA extraction.” for “decapitation.”\nTotal RNA from purified thin limb cells was extracted with TRIzol. […] Reverse transcription of 2 μg total RNA was performed using the SuperScript™ II RT kit (Invitrogen) and random hexamer primers, according to the manufacturer's protocol, including RNAse H treatement. mRNA levels of rat GHRH-R and rat GAPDH (internal control) were determined in separate tubes, by real-time PCR, using a 1/150 (GHRH-R) and 1/300 (GAPDH) dilution of the RT product and the reagents from the Quantitect™ SYBR® Green PCR kit (Qiagen, Mississauga, ON, CA), according to the manufacturer's recommendation. […]"}, "CIC-K1 mRNA": {"system": "CIC-K1 mRNA", "experiment": "CIC-K1 mRNA levels by real-time RT-PCR in purified thin limb cells after in vivo sc GHRH", "parameters": "species or system rat", "conditions": "1 mg/kg BW/day sc, 2 days"}, "[5]": {"system": "anterior pituitary GHRH-R mRNA", "experiment": "Anterior pituitary GHRH-R mRNA levels after in vivo GHRH", "parameters": "species or system rat", "conditions": "2-day in vivo GHRH", "protocol": "as §1\nTotal RNA was extracted as above. […] Membranes were subsequently washed, exposed to films, stripped and rehybridized with GAPDH 28S probes.^33 Quantification of each GHRH-R mRNA transcript (2.5 and 4 kb), GAPDH mRNA and 28S rRNA levels was performed by densitometry. […]"}, "[6]": {"experiment": "Body weight and food intake of rats on 8%-NaCl diet injected with GHRH", "format": "in vivo, rat", "conditions": "2-day 8%-NaCl diet, injected with GHRH or saline", "protocol": "as §2"}, "[7]": {"conditions": "14-day sc administration, cited from earlier work"}}, "note": "No end group written: not given here."}
{"substance": "rGHRH(1-29)NH2 (HADAIFTSSYRRILGQLYARKLLHEIMNR-NH2) [rat growth hormone-releasing hormone fragment 1-29 amide, synthesized in the applicant's laboratory]", "values": [{"measurement": "decrease of GHRH-induced cAMP production", "setting": "GHRH-R; 1 nM and 100 nM, cells from rats fed 2 days 8%-NaCl chow vs control diet", "value": 1.5, "unit": "fold"}, {"measurement": "loss of sensitivity to GHRH (cAMP production)", "setting": "GHRH-R; cells from rats fed the high-salt diet for 7 or 14 days", "value": "reverted"}, {"measurement": "increase in intensity of mitochondrial BrdU immunofluorescence", "setting": "[1]", "value": "≈ 7 times"}, {"measurement": "increase in the number of ascending thin limb cell nuclei and mitochondria immunolabeled to BrdU", "setting": "[1]; vs control groups", "value": 5, "unit": "times"}, {"measurement": "GHRH-R mRNA levels in the renal medulla", "setting": "GHRH-R mRNA [2]", "value": "tended to increase"}, {"measurement": "serum total insulin-like growth factor-1 (IGF-1) levels", "setting": "[3]", "value": "not modified"}, {"measurement": "regulation of renal GHRH-R mRNA levels in thin limb cells", "setting": "GHRH-R mRNA [4]; 0.5 mg/kg BW/day sc, healthy rats, P<0.01", "value": "up-regulate"}, {"measurement": "GHRH-R mRNA levels", "setting": "GHRH-R mRNA [4]; 5 other rats", "value": "decreased"}, {"measurement": "GHRH-R mRNA levels", "setting": "GHRH-R mRNA [4]; subgroup of 3 rats", "value": "significantly increased"}, {"measurement": "CIC-K1 mRNA levels", "setting": "CIC-K1 mRNA; 5 other rats", "value": "without significantly altering"}, {"measurement": "CICK-1 mRNA levels", "setting": "CIC-K1 mRNA; subgroup of 3 rats", "value": "significantly increased"}, {"measurement": "anterior pituitary GHRH-R mRNA levels", "setting": "[5]", "value": "No significant regulatory effect"}, {"measurement": "body weight (BW)", "setting": "[6]", "value": "No change"}, {"measurement": "food intake", "setting": "[6]", "value": "No change"}, {"measurement": "IGF-I serum levels significantly decreased", "setting": "[7]; 0.5 mg/kg BW/day", "value": "not"}, {"measurement": "IGF-I serum levels", "setting": "[7]; 1 mg/kg BW/day", "value": "significantly decreased"}]}
